Test results published in publication PMC7377239, “Cardiovascular Effects of Polychlorinated Biphenyls and Their Major Metabolites” (Environmental Health Perspectives, 2020).
Like-named read-outs stand apart in the source and are kept apart here.

Test system: iCell cardiomyocytes (human iPSC-derived cardiomyocytes)
Assay: Intracellular Ca2+ flux / beating parameters in iCell cardiomyocytes (FLIPR tetra), 90 min or 24 h
Assay type: cell-based
Conditions: 0.00 µM = 100.00; for activity at 0.01 µM / activity at 0.1 µM / activity at 1 µM / activity at 10 µM / activity at 100 µM: Homo sapiens, Cardiomyocyte
Method in brief: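 Gelatin-plated iCell cardiomyocytes (5,000/well) were dye-loaded for 2 h at 37 °C, then exposed for 90 min or 24 h to PCBs/metabolites (5× plates at 0.05–500 µM; 0.5% DMSO final) in triplicate. Ca2+ flux was read for 100 s at 8 Hz and 37 °C. Peak height, frequency, spacing CV and decay/rise ratio were vehicle-normalized and fitted with a four-parameter logistic model, with POD set at 1 SD of vehicle.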

`Clc1ccc(Cl)c(-c2c(Cl)ccc(Cl)c2Cl)c1Cl` [(+)-PCB 136, 2,2′,3,3′,6,6′-hexachlorobiphenyl] was tested, and the cm.amp.avg.24hrs (0.01 µM, 24hrs) was 54.01, the cm.amp.cv.24hrs (0.01 µM, 24hrs) was 158.80 and the cm.amp.avg.24hrs (0.10 µM, 24hrs) was 107.99. The cm.amp.cv.24hrs (0.10 µM, 24hrs) was 72.89, the cm.bpm.24hrs (0.10 µM, 24hrs) was 96.42 and the cm.decay.rise.24hrs (0.10 µM, 24hrs) was 106.79. The cm.spacing.cv.24hrs (0.10 µM, 24hrs) was 105.08, the cm.amp.cv.24hrs (1.00 µM, 24hrs) was 92.90 and the cm.bpm.24hrs (1.00 µM, 24hrs) was 94.51. The cm.decay.rise.24hrs (1.00 µM, 24hrs) was 114.76, the cm.spacing.cv.24hrs (1.00 µM, 24hrs) was 110.09 and the cm.bpm.90min (10.00 µM, 90min) was 82.76. It also gave a cm.decay.rise.90min (10.00 µM, 90min) of 115.77, a cm.amp.avg.24hrs (10.00 µM, 24hrs) of 0.00 and a cm.amp.cv.24hrs (10.00 µM, 24hrs) of 0.00. It also gave a cm.bpm.24hrs (10.00 µM, 24hrs) of 0.00, a cm.decay.rise.24hrs (10.00 µM, 24hrs) of 0.00 and a cm.spacing.cv.24hrs (10.00 µM, 24hrs) of 0.00. The activity at 0.01 µM (1.5 h, 0.01 µM, 90min, read-out: cm.amp.avg.90min) was 106%, the activity at 0.01 µM (1.5 h, 0.01 µM, 90min, read-out: cm.amp.cv.90min) was 96.9% and the activity at 0.01 µM (1.5 h, 0.01 µM, 90min, read-out: cm.bpm.90min) was 97.8%. The activity at 0.01 µM (1.5 h, 0.01 µM, 90min, read-out: cm.decay.rise.90min) was 99%, the activity at 0.01 µM (1.5 h, 0.01 µM, 90min, read-out: cm.spacing.cv.90min) was 101% and the activity at 0.1 µM (1.5 h, 0.10 µM, 90min, read-out: cm.amp.avg.90min) was 107%. It also gave an activity at 0.1 µM (1.5 h, 0.10 µM, 90min, read-out: cm.amp.cv.90min) of 112%, an activity at 0.1 µM (1.5 h, 0.10 µM, 90min, read-out: cm.bpm.90min) of 96.5% and an activity at 0.1 µM (1.5 h, 0.10 µM, 90min, read-out: cm.decay.rise.90min) of 99.7%. It also gave an activity at 0.1 µM (1.5 h, 0.10 µM, 90min, read-out: cm.spacing.cv.90min) of 115%, an activity at 1 µM (1.5 h, 1.00 µM, 90min, read-out: cm.amp.avg.90min) of 107% and an activity at 1 µM (1.5 h, 1.00 µM, 90min, read-out: cm.amp.cv.90min) of 120%. For the same molecule, the activity at 1 µM (1.5 h, 1.00 µM, 90min, read-out: cm.bpm.90min) was 87.8%, the activity at 1 µM (1.5 h, 1.00 µM, 90min, read-out: cm.decay.rise.90min) was 107% and the activity at 1 µM (1.5 h, 1.00 µM, 90min, read-out: cm.spacing.cv.90min) was 107%. It also gave an activity at 10 µM (1.5 h, 10.00 µM, 90min, read-out: cm.amp.avg.90min) of 94.4%, an activity at 10 µM (1.5 h, 10.00 µM, 90min, read-out: cm.amp.cv.90min) of 114% and an activity at 10 µM (1.5 h, 10.00 µM, 90min, read-out: cm.spacing.cv.90min) of 118%. The activity at 100 µM (1.5 h, 100.00 µM, 90min, read-out: cm.amp.avg.90min) was 0%, the activity at 100 µM (1.5 h, 100.00 µM, 90min, read-out: cm.amp.cv.90min) was 0% and the activity at 100 µM (1.5 h, 100.00 µM, 90min, read-out: cm.bpm.90min) was 0%. The activity at 100 µM (1.5 h, 100.00 µM, 90min, read-out: cm.decay.rise.90min) was 0%, the activity at 100 µM (1.5 h, 100.00 µM, 90min, read-out: cm.spacing.cv.90min) was 0% and the activity at 0.01 µM (24 h, 0.01 µM, 24hrs, read-out: cm.bpm.24hrs) was 105%. It also gave an activity at 0.01 µM (24 h, 0.01 µM, 24hrs, read-out: cm.decay.rise.24hrs) of 93.3%, an activity at 0.01 µM (24 h, 0.01 µM, 24hrs, read-out: cm.spacing.cv.24hrs) of 104% and an activity at 1 µM (24 h, 1.00 µM, 24hrs, read-out: cm.amp.avg.24hrs) of 83.3%. The activity at 100 µM (24 h, 100.00 µM, 24hrs, read-out: cm.amp.avg.24hrs) was 0%, the activity at 100 µM (24 h, 100.00 µM, 24hrs, read-out: cm.amp.cv.24hrs) was 0% and the activity at 100 µM (24 h, 100.00 µM, 24hrs, read-out: cm.bpm.24hrs) was 0%. It also gave an activity at 100 µM (24 h, 100.00 µM, 24hrs, read-out: cm.decay.rise.24hrs) of 0% and an activity at 100 µM (24 h, 100.00 µM, 24hrs, read-out: cm.spacing.cv.24hrs) of 0%.

Molecule `Clc1ccc(Cl)c(-c2c(Cl)ccc(Cl)c2Cl)c1Cl` [(-)-PCB 136, 2,2′,3,3′,6,6′-hexachlorobiphenyl] has a cm.amp.avg.90min (0.01 µM, 90min) of 93.19, a cm.amp.cv.90min (0.01 µM, 90min) of 114.99 and a cm.bpm.90min (0.01 µM, 90min) of 99.06. For the same molecule, the cm.decay.rise.90min (0.01 µM, 90min) was 100.18, the cm.spacing.cv.90min (0.01 µM, 90min) was 110.22 and the cm.amp.avg.24hrs (0.01 µM, 24hrs) was 96.89. For the same molecule, the cm.amp.cv.24hrs (0.01 µM, 24hrs) was 99.89, the cm.bpm.24hrs (0.01 µM, 24hrs) was 97.37 and the cm.decay.rise.24hrs (0.01 µM, 24hrs) was 110.34. The cm.spacing.cv.24hrs (0.01 µM, 24hrs) was 99.92, the cm.amp.avg.90min (0.10 µM, 90min) was 107.52 and the cm.amp.cv.90min (0.10 µM, 90min) was 110.59. It also gave a cm.bpm.90min (0.10 µM, 90min) of 101.57, a cm.decay.rise.90min (0.10 µM, 90min) of 100.78 and a cm.spacing.cv.90min (0.10 µM, 90min) of 107.82. For the same molecule, the cm.amp.avg.24hrs (0.10 µM, 24hrs) was 74.13, the cm.amp.cv.24hrs (0.10 µM, 24hrs) was 32.34 and the cm.bpm.24hrs (0.10 µM, 24hrs) was 44.87. The cm.decay.rise.24hrs (0.10 µM, 24hrs) was 55.66, the cm.spacing.cv.24hrs (0.10 µM, 24hrs) was 50.62 and the cm.amp.avg.90min (1.00 µM, 90min) was 95.68. For the same molecule, the cm.amp.cv.90min (1.00 µM, 90min) was 133.10, the cm.bpm.90min (1.00 µM, 90min) was 102.82 and the cm.decay.rise.90min (1.00 µM, 90min) was 105.32. It also gave a cm.spacing.cv.90min (1.00 µM, 90min) of 97.68, a cm.amp.avg.24hrs (1.00 µM, 24hrs) of 66.49 and a cm.amp.cv.24hrs (1.00 µM, 24hrs) of 35.31. The cm.bpm.24hrs (1.00 µM, 24hrs) was 50.60, the cm.decay.rise.24hrs (1.00 µM, 24hrs) was 50.54 and the cm.spacing.cv.24hrs (1.00 µM, 24hrs) was 53.09. It also gave a cm.amp.avg.90min (10.00 µM, 90min) of 76.03, a cm.amp.cv.90min (10.00 µM, 90min) of 119.24 and a cm.bpm.90min (10.00 µM, 90min) of 115.36. The cm.decay.rise.90min (10.00 µM, 90min) was 88.64, the cm.spacing.cv.90min (10.00 µM, 90min) was 116.95 and the cm.amp.avg.24hrs (10.00 µM, 24hrs) was 43.21. For the same molecule, the cm.amp.cv.24hrs (10.00 µM, 24hrs) was 38.97, the cm.bpm.24hrs (10.00 µM, 24hrs) was 43.91 and the cm.decay.rise.24hrs (10.00 µM, 24hrs) was 43.15. The cm.spacing.cv.24hrs (10.00 µM, 24hrs) was 54.11, the cm.amp.avg.90min (100.00 µM, 90min) was 0.00 and the cm.amp.cv.90min (100.00 µM, 90min) was 0.00. The cm.bpm.90min (100.00 µM, 90min) was 0.00, the cm.decay.rise.90min (100.00 µM, 90min) was 0.00 and the cm.spacing.cv.90min (100.00 µM, 90min) was 0.00. For the same molecule, the cm.amp.avg.24hrs (100.00 µM, 24hrs) was 0.00, the cm.amp.cv.24hrs (100.00 µM, 24hrs) was 0.00 and the cm.bpm.24hrs (100.00 µM, 24hrs) was 0.00. The cm.decay.rise.24hrs (100.00 µM, 24hrs) was 0.00 and the cm.spacing.cv.24hrs (100.00 µM, 24hrs) was 0.00.
